For 21 compounds, inhibition and IC50 results are on record in patent US10385057B2, “Pyrazole compounds and methods of making and using same” (Lundbeck La Jolla Research Center, Inc., priority 2015, dated 2019).

Where only a bound is given, the exact number is not on record here.

For one test, the target named is T1, MAGL (Mus musculus, UniProt O35678).
T1 construct: mouse brain membrane fraction or cell lysates for mouse assays; from tissue
T1 sequence (O35678 1-303): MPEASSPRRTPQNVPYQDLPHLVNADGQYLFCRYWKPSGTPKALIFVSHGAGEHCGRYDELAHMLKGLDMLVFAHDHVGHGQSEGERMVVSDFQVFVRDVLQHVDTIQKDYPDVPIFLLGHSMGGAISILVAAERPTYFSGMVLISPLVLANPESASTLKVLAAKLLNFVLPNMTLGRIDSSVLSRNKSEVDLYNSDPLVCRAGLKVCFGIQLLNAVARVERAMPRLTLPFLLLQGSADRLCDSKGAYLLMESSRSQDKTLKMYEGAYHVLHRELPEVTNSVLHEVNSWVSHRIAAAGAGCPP
In words: In vitro competitive activity-based protein profiling, mouse MAGL. In kind it is biochemical. Conditions: for inhibition at 1 µM: read-out: MAGL % inh. 1 μM (mouse). The method, boiled down:
(§1)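 Activity measured as fluorescent gel-band intensity of MAGL and FAAH after SDS-PAGE. Before labelling with FP-Rh or HT-01 (30 min, 37 °C), proteomes at 1.0 mg/mL (mouse brain membrane or lysates; human prefrontal cortex or cell membranes) were exposed to varying inhibitor concentrations for 30 min at 37 °C.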

In the next test the target is T2, FAAH (Mus musculus, UniProt O08914).
T2 construct: mouse brain membrane fraction or cell lysates for mouse assays; from tissue
T2 sequence (O08914 1-579): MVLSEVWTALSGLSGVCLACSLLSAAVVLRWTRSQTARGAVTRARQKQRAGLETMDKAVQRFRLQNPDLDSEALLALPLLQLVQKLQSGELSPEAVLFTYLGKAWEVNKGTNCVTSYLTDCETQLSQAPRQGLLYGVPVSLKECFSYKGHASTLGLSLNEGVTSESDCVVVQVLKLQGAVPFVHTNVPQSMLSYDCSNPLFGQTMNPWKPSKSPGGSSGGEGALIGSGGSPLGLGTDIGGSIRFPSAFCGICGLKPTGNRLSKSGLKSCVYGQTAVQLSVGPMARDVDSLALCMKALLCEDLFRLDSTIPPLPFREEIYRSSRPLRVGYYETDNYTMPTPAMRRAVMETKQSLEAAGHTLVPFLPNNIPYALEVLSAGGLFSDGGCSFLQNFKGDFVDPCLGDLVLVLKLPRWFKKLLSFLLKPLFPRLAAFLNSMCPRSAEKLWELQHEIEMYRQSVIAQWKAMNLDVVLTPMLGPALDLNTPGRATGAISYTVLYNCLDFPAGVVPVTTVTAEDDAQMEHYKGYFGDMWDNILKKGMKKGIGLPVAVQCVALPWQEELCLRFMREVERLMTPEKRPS
In words: In vitro competitive activity-based protein profiling, mouse FAAH. In kind it is biochemical. Conditions: for inhibition at 1 µM: read-out: FAAH % inh. 1 μM (mouse). The method, boiled down: as §1

As for `CN(Cc1ccc(-c2cccnn2)cc1C(F)(F)F)[C@@H]1C[C@@H]2CN(C(=O)n3cc(C(N)=O)cn3)C[C@@H]2C1` [Example 191, 1-(cis-5-(methyl(4-(pyridazin-3-yl)-2-(trifluoromethyl)benzyl)amino)octahydrocyclopenta[c]pyrrole-2-carbonyl)-1H-pyrazole-4-carboxamide], the inhibition at 1 µM at MAGL and on FAAH was at least 75% throughout.

In general, IC50 refers to the concentration that inhibits the measured activity by half. Read a high IC50 as lower potency. On to `NC(=O)c1cnn(C(=O)N2CC[C@@]3(CCN(Cc4cc(Cl)cc(C(F)(F)F)c4)C3)C2)c1` [Example 192, (R)-1-(7-(3-chloro-5-(trifluoromethyl)benzyl)-2,7-diazaspiro[4.4]nonane-2-carbonyl)-1H-pyrazole-4-carboxamide], for which the IC50 on MAGL and at FAAH was at most 100 nM each time.

With `NC(=O)c1cnn(C(=O)N2CC[C@]3(CCN(Cc4cc(Cl)cc(C(F)(F)F)c4)C3)C2)c1` [Example 193, (S)-1-(7-(3-chloro-5-(trifluoromethyl)benzyl)-2,7-diazaspiro[4.4]nonane-2-carbonyl)-1H-pyrazole-4-carboxamide], the IC50 at MAGL and on FAAH was at most 100 nM throughout.

On to `NC(=O)c1cnn(C(=O)N2CC[C@@]3(CCN(Cc4ccc(N5CCOCC5)cc4C(F)(F)F)C3)C2)c1` [Example 194, (R)-1-(7-(4-morpholino-2-(trifluoromethyl)benzyl)-2,7-diazaspiro[4.4]nonane-2-carbonyl)-1H-pyrazole-4-carboxamide], for which the inhibition at 1 µM on MAGL and at FAAH was at least 75% throughout.

With `O=C(c1cnn(C(=O)N2CC3CN(Cc4cccc(Oc5ccc(Cl)cc5)c4)CC3C2)c1)N1CCOCC1` (stereo not shown) [Example 199, (5-(3-(4-chlorophenoxy)benzyl)hexahydropyrrolo[3,4-c]pyrrol-2(1H)-yl)(4-(morpholine-4-carbonyl)-1H-pyrazol-1-yl)methanone], at MAGL, the IC50 was 1000 to 10000 nM and the inhibition at 1 µM was 25 to 50%. On FAAH, the IC50 is at most 100 nM and the inhibition at 1 µM is at least 75%.

As to `O=C(c1cnn(C(=O)N2CC3CN(Cc4ccc(Oc5ccc(Cl)cc5)cc4)CC3C2)c1)N1CCOCC1` (stereo not shown) [Example 200, (5-(4-(4-chlorophenoxy)benzyl)hexahydropyrrolo[3,4-c]pyrrol-2(1H)-yl)(4-(morpholine-4-carbonyl)-1H-pyrazol-1-yl)methanone], the inhibition at 1 µM on MAGL is 0 to 25%; on FAAH, at least 75%. Besides, the inhibition at 10 µM is 50% at MAGL (10 μM, read-out: MAGL % inh. at 10 μM (mouse)) and 100% on FAAH (10 μM, read-out: FAAH % inh. at 10 μM (mouse)).

In the case of `NC(=O)c1cnn(C(=O)N2CCC3(CCN(Cc4ccc(-c5nccs5)cc4Cl)C3)C2)c1` (stereo not shown) [Example 201, 1-(7-(2-chloro-4-(thiazol-2-yl)benzyl)-2,7-diazaspiro[4.4]nonane-2-carbonyl)-1H-pyrazole-4-carboxamide], the inhibition at 1 µM at MAGL and at FAAH was at least 75% throughout.

Regarding `NC(=O)c1cnn(C(=O)N2CCC3(CCN(Cc4ccc(Cl)c(Cl)c4)C3)C2)c1` (stereo not shown) [Example 202, 1-(7-(3,4-dichlorobenzyl)-2,7-diazaspiro[4.4]nonane-2-carbonyl)-1H-pyrazole-4-carboxamide], the inhibition at 1 µM on MAGL and on FAAH was at least 75% in each case.

`NC(=O)c1cnn(C(=O)N2CCC3(CCN(Cc4ccc(N5CCCC5)cc4C(F)(F)F)C3)C2)c1` (stereo not shown) [Example 203, 1-(7-(4-(pyrrolidin-1-yl)-2-(trifluoromethyl)benzyl)-2,7-diazaspiro[4.4]nonane-2-carbonyl)-1H-pyrazole-4-carboxamide]: the inhibition at 1 µM at MAGL and at FAAH was at least 75% in each case.

Regarding `NC(=O)c1cnn(C(=O)N2CCC3(CCN(Cc4ccc(N5CCOCC5)cc4Cl)C3)C2)c1` (stereo not shown) [Example 204, 1-(7-(2-chloro-4-morpholinobenzyl)-2,7-diazaspiro[4.4]nonane-2-carbonyl)-1H-pyrazole-4-carboxamide], the inhibition at 1 µM at MAGL and on FAAH was at least 75% throughout.

Turning to `NC(=O)c1cnn(C(=O)N2CCC3(CCN(Cc4ccc(N5CCCC5)cc4Cl)C3)C2)c1` (stereo not shown) [Example 205, 1-(7-(2-chloro-4-(pyrrolidin-1-yl)benzyl)-2,7-diazaspiro[4.4]nonane-2-carbonyl)-1H-pyrazole-4-carboxamide], the inhibition at 1 µM on MAGL and at FAAH was at least 75% throughout.

With `NC(=O)c1cnn(C(=O)N2CCC3(CCN(Cc4ccc(N5CCOCC5)c(C(F)(F)F)c4)C3)C2)c1` (stereo not shown) [Example 206, 1-(7-(4-morpholino-3-(trifluoromethyl)benzyl)-2,7-diazaspiro[4.4]nonane-2-carbonyl)-1H-pyrazole-4-carboxamide], the inhibition at 1 µM on MAGL and on FAAH was at least 75% throughout.

As to `NC(=O)c1cnn(C(=O)N2CCC3(CCN(Cc4ccc(N5CCCC5)c(C(F)(F)F)c4)C3)C2)c1` (stereo not shown) [Example 207, 1-(7-(4-(pyrrolidin-1-yl)-3-(trifluoromethyl)benzyl)-2,7-diazaspiro[4.4]nonane-2-carbonyl)-1H-pyrazole-4-carboxamide], the inhibition at 1 µM at MAGL and at FAAH was at least 75% each time.

Regarding `NC(=O)c1cnn(C(=O)N2CCC3(CCN(Cc4ccc(C(F)(F)F)c(N5CCOCC5)c4)C3)C2)c1` (stereo not shown) [Example 208, 1-(7-(3-morpholino-4-(trifluoromethyl)benzyl)-2,7-diazaspiro[4.4]nonane-2-carbonyl)-1H-pyrazole-4-carboxamide], the inhibition at 1 µM at MAGL and on FAAH was at least 75% in each case.

For the compound `NC(=O)c1cnn(C(=O)N2CCC3(CCN(Cc4ccc(C(F)(F)F)c(N5CCCC5)c4)C3)C2)c1` (stereo not shown) [Example 209, 1-(7-(3-(pyrrolidin-1-yl)-4-(trifluoromethyl)benzyl)-2,7-diazaspiro[4.4]nonane-2-carbonyl)-1H-pyrazole-4-carboxamide], the inhibition at 1 µM at MAGL and on FAAH was at least 75% throughout.

Turning to `NC(=O)c1cnn(C(=O)N2CCC3(CCN(Cc4cc(N5CCCC5)cc(C(F)(F)F)c4)C3)C2)c1` (stereo not shown) [Example 211, 1-(7-(3-(pyrrolidin-1-yl)-5-(trifluoromethyl)benzyl)-2,7-diazaspiro[4.4]nonane-2-carbonyl)-1H-pyrazole-4-carboxamide], the inhibition at 1 µM at MAGL and on FAAH was at least 75% throughout.

As to `NC(=O)c1cnn(C(=O)N2CCC3(CCN(Cc4cc(N5CCOCC5)ccc4C(F)(F)F)C3)C2)c1` (stereo not shown) [Example 212, 1-(7-(5-morpholino-2-(trifluoromethyl)benzyl)-2,7-diazaspiro[4.4]nonane-2-carbonyl)-1H-pyrazole-4-carboxamide], the inhibition at 1 µM at MAGL and at FAAH was at least 75% in each case.

As for `NC(=O)c1cnn(C(=O)N2CCC3(CCN(Cc4cc(N5CCCC5)ccc4C(F)(F)F)C3)C2)c1` (stereo not shown) [Example 213, 1-(7-(5-(pyrrolidin-1-yl)-2-(trifluoromethyl)benzyl)-2,7-diazaspiro[4.4]nonane-2-carbonyl)-1H-pyrazole-4-carboxamide], the values for the inhibition at 1 µM at MAGL and at FAAH were at least 75% and 50 to 75%, respectively.

On to `CN(Cc1cc(C(F)(F)F)ccc1Cl)[C@H]1C[C@@H]2CN(C(=O)n3cc(C(N)=O)cn3)C[C@@H]2C1` [Example 214, 1-(trans-5-((2-chloro-5-(trifluoromethyl)benzyl)(methyl)amino)octahydrocyclopenta[c]pyrrole-2-carbonyl)-1H-pyrazole-4-carboxamide], for which the inhibition at 1 µM at MAGL and on FAAH was at least 75% each time.

As for `CN(Cc1cc(Cl)ccc1C(F)(F)F)[C@H]1C[C@@H]2CN(C(=O)n3cc(C(N)=O)cn3)C[C@@H]2C1` [Example 215, 1-(trans-5-((5-chloro-2-(trifluoromethyl)benzyl)(methyl)amino)octahydrocyclopenta[c]pyrrole-2-carbonyl)-1H-pyrazole-4-carboxamide], the inhibition at 1 µM on MAGL and at FAAH was at least 75% in each case.

As to `CN(Cc1ccc(C(F)(F)F)c(N2CCCC2)c1)[C@H]1C[C@@H]2CN(C(=O)n3cc(C(N)=O)cn3)C[C@@H]2C1` [Example 216, 1-(trans-5-(methyl(3-(pyrrolidin-1-yl)-4-(trifluoromethyl)benzyl)amino)octahydrocyclopenta[c]pyrrole-2-carbonyl)-1H-pyrazole-4-carboxamide], the inhibition at 1 µM at MAGL and on FAAH was at least 75% each time.
